Measurements reported in patent US20200113902A1, “COMPOSITIONS AND METHODS FOR TREATING CANCERS WITH COVALENT INHIBITORS OF CYCLIN-DEPENDENT KINASE 7 (CDK7)” (Syros Pharmaceuticals, Inc., priority 2017, published 2020).

What was measured:
[1] = system: homologous recombination deficiency / carboplatin sensitivity genes in COV318 cells; assay: Nanostring PanCancer Pathways mRNA, COV318; type: cell-based; settings: 50 nM, 16 hours
Protocol: Ovarian Cell lines OvCar3, TOV21G, A2780 and COV318 were plated at 500,000 cells/well in a 6-well plate the day before treatment. The next day the cells were treated with vehicle or 50 nM Compound 1 for 0, 6, or 16 hours after which cells were harvested and total RNA collected using RNeasy mini kit (Qiagen). Changes in mRNA between samples were analyzed with Nanostring™ PanCancer Pathways Panels specifically analyzing genes related to homologous recombination deficiency and carboplatin sensitivity (ie. BRCA1, BRCA2, Rad51, ATM, ATR, MSH2, MSH6). Nanostring signal intensities were first normalized to housekeeping genes across all cell lines, and then normalized to the 0 hour timepoint within a cell line.

[2] = system: MCL1 protein in HCC70 xenograft tumor; assay: HCC70 xenograft tumor, Western blot; type: in vivo; settings: HCC70 xenograft mouse; single dose of 40 mg/kg
Protocol: (§1) Cytotoxic cancer cell lines HCC70 and TOV21G, and cytostatic cancer cell lines T47D and COV318 were seeded in wells of a six-well dish at a density of 1×10^6 cells/well and allowed to adhere overnight. Cells were then treated with 50 nM of Compound 1 for 16 or 24 hours, or with DMSO (0 hours) representing a negative control. Cells were harvested and placed on ice, and resuspended in RIPA lysis buffer supplemented with protease and phosphatase inhibitors. Clarified lysates prepared with 4×LSD running buffer and boiled at 95° C. for 5 minutes. Equivalent amounts of sample (10 μg total protein) were run on a 4-12% Bis-Tris gel and transferred to a PDVF membrane for Western blotting using standard Western blotting protocols. Membranes were blocked with Licor TBS blocking buffer then probed with antibodies for BCL-XL, BCL-2, MCL1, BID, and GAPDH visualized using and Odyssey imager (FIGS. 23A and 23D).
Subcutaneous HCC70 xenografts were established in BALC/c nude mice at ChemPartner (Shanghai, China). Each mouse was inoculated subcutaneously in the right flank with 5×10^6 HCC70 cells (ATCC, CAT #: CRL-2315) in 0.2 ml of a 1:1 mixture of base medium and Matrigel. Tumor sizes were measured in two dimensions using a caliper, and the volumes were expressed in mm^3 using the formula: V=0.5 a×b^2 where a and b are the longest and shortest diameters of the tumor, respectively. […]

[3] = system: gene expression in MDA-MB468 cells; assay: Gene expression profiling via RNA-seq (DESeq2, linear model), MDA-MB468; type: cell-based; settings: four hours, JQ1 125 nM, Compound 1 25 nM
Protocol: In addition, we compared the ability of JQ1 alone, Compound 1 alone, and a combination of JQ1 and Compound 1 to modify expression of various genes in two breast cancer cell lines. Two triple-negative breast cancer cell lines (HCC70 and MDA-MB468) were tested. The cell lines were treated with JQ1, Compound 1, the JQ1/Compound 1 combination, or DMSO for four hours, after which gene expression profiling via RNA-seq was performed. JQ1 was administered to the cells at a 125 nM final concentration in both single agent and combination experiments. Compound 1 was administered to the cells at a 25 nM final concentration in both single agent and combination experiments. Each experiment was performed in triplicate. One replicate of MDA-MB-468 treated with single-agent JQ1 was excluded from further analysis due to quality.
We employed DESeq2 (Love et al., Genome Biology, 15(12):550, 2014) to identify changes in gene expression due to the JQ1, Compound 1, and JQ1-Compound 1 combination treatment compared to the control DMSO condition based on the RNA-seq data. Genes resulting in a p-value below 0.01 and an absolute logFoldChange above 0.5 were considered to be differentially expressed. […] The same is true for 1459 of 2414 genes in MDA-MB468.
To identify the genes whose expression is impacted synergistically by the drug combination, we modeled the effect of each drug treatment on expression using a linear model. The expression of each gene after the combination treatment can be thought of as the combined impact of Compound 1, JQ1, and any synergistic interaction between the drug treatments on baseline gene expression. A linear model used to describe this relationship could therefore be represented as:
Gene Expression after combination treatment=Baseline Expression+Compound 1 effect+JQ1 effect+Combination effect (Synergistic Impact)
By fitting the expression data for each gene using this model, we were able to evaluate the effect of each treatment, and identify cases where a synergistic interaction between Compound 1 and JQ1 impacts final gene expression. After fitting the linear model to each gene, the weight and p-value of each term can be evaluated. The combination term's weight signifies the mean change resulting from a synergetic impact on expression, with a negative weight indicating synergistic downregulation. Its associated p-value represents the probability that the combination term is not relevant to final gene expression. Using this approach, we identified 1806 genes in HCC70 and 2205 genes in MDA-MB468 whose expression change in the combination treatment was synergistic and whose associated p-value was less than a threshold cutoff of 0.01. The expression of these synergistic genes could not be explained by an additive effect of Compound 1 and JQ1 alone.

[4] = system: MCL1 protein in HCC70 cells; assay: Western blot of BCL2 family proteins, HCC70; type: cell-based, human; settings: 50 nM or 100 nM, 24 hours
Protocol: as §1
In a similar experiment, TNBC breast cancer cell lines HCC70, MDAMB468, MDAMB453 and CAL-120 were grown as described above and treated with DMSO, 50 nM Compound 1 or 100 nM Compound 1 for 24 hours. Protein samples were prepared as described above for Western blotting using antibodies specific for the indicated proteins in FIG. 29A. […]

[5] = system: HR^+ breast cancer cells; assay: Inhibition of HR^+ breast cancer cells in vitro (data not shown); type: cell-based; settings: including cells with acquired resistance to aromatase inhibitors and cells no longer responding to CDK4/6 inhibitors

CN(C)C/C=C/C(=O)Nc1ccc(C(=O)N[C@@]2(C)CCC[C@@H](Nc3ncc(Cl)c(-c4c[nH]c5ccccc45)n3)C2)nc1 [Compound 1, N-((1S,3R)-3-(5-chloro-4-(1H-indol-3-yl)pyrimidin-2-ylamino)-1-methylcyclohexyl)-5-((E)-4-(dimethylamino)but-2-enamido)picolinamide]
mRNA of genes related to homologous recombination deficiency and carboplatin sensitivity, all genes except Rad51 (BRCA1, BRCA2, ATM, ATR, MSH2, MSH6) [1]: downregulated | MCL1 protein expression in tumor (Western blot) [2]: reduced MCL1 protein expression | Average Expression (TPM) FOXC1 ([3]; DMSO 33.731): 25.556 TPM | Average Expression (TPM) GATA3 ([3]; DMSO 34.244): 21.773 TPM | Average Expression (TPM) TGIF1 ([3]; DMSO 145.88): 134.08 TPM | MCL1 protein level (Western blot) [4]: downregulated | Inhibition of HR^+ breast cancer cells in vitro [5]: inhibits many HR^+ breast cancer cells in vitro
